Laboratory results published in US12365696B2, “Small-molecule focal adhesion kinase (FAK) inhibitors” (DANA-FARBER CANCER INSTITUTE, INC., priority 2019, dated 2025).
Where two headings read alike, the source gives them in different places.

Key:
Test in all cases: KINOMEscan
Assay type in all cases: binding
[1] = target: IRAK1 (Homo sapiens (Human), UniProt P51617); details: read-out: Percent Control
[2] = target: PHKG2 (Homo sapiens (Human), UniProt P15735); details: PHKG2, 10000 nM; read-out: Percent Control
[3] = target: TESK1 (Homo sapiens (Human), UniProt Q15569); details: TESK1, 10000 nM; read-out: Percent Control
[4] = target: p38-delta (Homo sapiens (Human), UniProt O15264); details: 10000 nM, read-out: Percent Control
p38-delta, sequence (O15264 whole entry): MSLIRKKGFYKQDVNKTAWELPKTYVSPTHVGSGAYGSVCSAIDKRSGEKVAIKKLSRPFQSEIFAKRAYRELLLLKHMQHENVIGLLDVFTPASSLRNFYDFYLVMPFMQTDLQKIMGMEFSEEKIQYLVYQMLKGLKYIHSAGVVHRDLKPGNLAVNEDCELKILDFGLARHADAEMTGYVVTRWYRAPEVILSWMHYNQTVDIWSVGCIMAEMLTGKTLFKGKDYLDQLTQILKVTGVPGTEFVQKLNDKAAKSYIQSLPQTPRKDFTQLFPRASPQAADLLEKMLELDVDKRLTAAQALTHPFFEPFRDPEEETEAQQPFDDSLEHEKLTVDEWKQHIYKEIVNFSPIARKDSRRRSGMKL

[5] = target: PRKG1 (Homo sapiens (Human), UniProt Q13976); details: PRKG1, 10000 nM; read-out: Percent Control
PRKG1, sequence (Q13976 whole entry): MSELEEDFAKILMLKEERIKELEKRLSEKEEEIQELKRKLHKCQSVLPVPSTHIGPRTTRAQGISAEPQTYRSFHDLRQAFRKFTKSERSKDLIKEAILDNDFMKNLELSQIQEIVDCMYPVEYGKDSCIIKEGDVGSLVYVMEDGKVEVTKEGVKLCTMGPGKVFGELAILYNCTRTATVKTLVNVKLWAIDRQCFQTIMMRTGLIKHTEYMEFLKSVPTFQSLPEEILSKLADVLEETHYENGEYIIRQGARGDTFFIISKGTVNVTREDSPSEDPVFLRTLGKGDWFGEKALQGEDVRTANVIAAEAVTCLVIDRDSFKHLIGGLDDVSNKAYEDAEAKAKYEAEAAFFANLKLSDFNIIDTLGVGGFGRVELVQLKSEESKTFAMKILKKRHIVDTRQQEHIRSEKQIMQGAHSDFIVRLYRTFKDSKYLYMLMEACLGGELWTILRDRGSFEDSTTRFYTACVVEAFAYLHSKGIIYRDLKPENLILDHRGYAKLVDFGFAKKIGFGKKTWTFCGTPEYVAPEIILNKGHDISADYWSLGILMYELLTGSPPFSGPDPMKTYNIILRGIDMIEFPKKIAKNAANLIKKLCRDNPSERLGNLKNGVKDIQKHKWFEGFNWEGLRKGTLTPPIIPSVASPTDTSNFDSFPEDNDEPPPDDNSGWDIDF

[6] = target: CSNK1G3 (Homo sapiens (Human), UniProt Q9Y6M4); details: CSNK1G3, 10000 nM; read-out: Percent Control
[7] = target: TAOK3 (Homo sapiens (Human), UniProt Q9H2K8); details: TAOK3, 10000 nM; read-out: Percent Control
[8] = target: CSNK1A1 (Homo sapiens (Human), UniProt P48729); details: CSNK1A1, 10000 nM; read-out: Percent Control
CSNK1A1, sequence (P48729 whole entry): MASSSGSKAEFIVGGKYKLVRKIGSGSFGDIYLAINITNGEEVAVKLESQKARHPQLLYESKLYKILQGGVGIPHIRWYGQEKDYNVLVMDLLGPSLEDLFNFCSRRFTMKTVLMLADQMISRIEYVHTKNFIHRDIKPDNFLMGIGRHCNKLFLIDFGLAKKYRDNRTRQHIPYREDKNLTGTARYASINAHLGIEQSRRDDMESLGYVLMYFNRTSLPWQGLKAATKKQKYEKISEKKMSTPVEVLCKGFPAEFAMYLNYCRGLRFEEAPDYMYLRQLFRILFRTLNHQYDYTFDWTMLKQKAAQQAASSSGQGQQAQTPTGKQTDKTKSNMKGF

[9] = target: EPHA7 (Homo sapiens (Human), UniProt Q15375); details: EPHA7, 10000 nM; read-out: Percent Control
[10] = target: MAP3K1 (Homo sapiens (Human), UniProt Q13233); details: MAP3K1, 10000 nM; read-out: Percent Control
[11] = target: CAMK2G (Homo sapiens (Human), UniProt Q13555); details: 10000 nM, read-out: Percent Control
[12] = target: CDC2L1 (Homo sapiens (Human), UniProt P21127); details: CDC2L1, 10000 nM; read-out: Percent Control
[13] = target: FAK (Homo sapiens (Human), UniProt Q05397); details: 10000 nM, read-out: Percent Control
[14] = target: PIM2 (Homo sapiens (Human), UniProt Q9P1W9); details: PIM2, 10000 nM; read-out: Percent Control
PIM2, sequence (Q9P1W9 whole entry): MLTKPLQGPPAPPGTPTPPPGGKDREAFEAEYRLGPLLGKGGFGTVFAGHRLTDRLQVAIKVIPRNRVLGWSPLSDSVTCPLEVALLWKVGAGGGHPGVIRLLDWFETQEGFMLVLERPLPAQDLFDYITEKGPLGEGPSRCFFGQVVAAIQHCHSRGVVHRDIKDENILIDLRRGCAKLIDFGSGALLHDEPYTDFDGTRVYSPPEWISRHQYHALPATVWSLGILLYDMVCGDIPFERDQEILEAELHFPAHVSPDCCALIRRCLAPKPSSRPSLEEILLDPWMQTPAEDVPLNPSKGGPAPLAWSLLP

[15] = target: RSK2(Kin.Dom.1-N-terminal) (Homo sapiens (Human), UniProt P51812); details: 10000 nM, read-out: Percent Control
[16] = target: CDK4-cyclinD1 (Homo sapiens (Human), UniProt P11802); details: CDK4-cyclinD1, 10000 nM; read-out: Percent Control
[17] = target: STK16 (Homo sapiens (Human), UniProt O75716); details: STK16, 10000 nM; read-out: Percent Control
[18] = target: TYRO3 (Homo sapiens (Human), UniProt Q06418); details: TYRO3, 10000 nM; read-out: Percent Control
[19] = target: CDK11 (Homo sapiens (Human), UniProt Q9BWU1); details: CDK11, 10000 nM; read-out: Percent Control
CDK11, sequence (Q9BWU1 whole entry): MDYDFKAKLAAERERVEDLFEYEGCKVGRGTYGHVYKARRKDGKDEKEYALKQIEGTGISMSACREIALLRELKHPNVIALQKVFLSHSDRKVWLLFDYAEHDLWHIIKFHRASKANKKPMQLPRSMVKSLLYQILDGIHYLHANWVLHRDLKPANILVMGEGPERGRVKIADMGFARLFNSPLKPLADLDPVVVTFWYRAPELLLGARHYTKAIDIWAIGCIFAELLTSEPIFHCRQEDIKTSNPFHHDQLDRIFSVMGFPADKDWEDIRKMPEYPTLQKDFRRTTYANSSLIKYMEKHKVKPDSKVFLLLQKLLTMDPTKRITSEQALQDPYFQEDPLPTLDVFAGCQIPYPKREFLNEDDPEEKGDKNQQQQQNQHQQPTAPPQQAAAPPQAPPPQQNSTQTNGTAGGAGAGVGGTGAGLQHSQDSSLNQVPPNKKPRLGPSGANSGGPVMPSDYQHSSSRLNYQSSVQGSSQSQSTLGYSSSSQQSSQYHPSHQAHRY

[20] = target: FLT3-autoinhibited (Homo sapiens (Human), UniProt P36888); details: 10000 nM, read-out: Percent Control
FLT3-autoinhibited, sequence (P36888 564-993): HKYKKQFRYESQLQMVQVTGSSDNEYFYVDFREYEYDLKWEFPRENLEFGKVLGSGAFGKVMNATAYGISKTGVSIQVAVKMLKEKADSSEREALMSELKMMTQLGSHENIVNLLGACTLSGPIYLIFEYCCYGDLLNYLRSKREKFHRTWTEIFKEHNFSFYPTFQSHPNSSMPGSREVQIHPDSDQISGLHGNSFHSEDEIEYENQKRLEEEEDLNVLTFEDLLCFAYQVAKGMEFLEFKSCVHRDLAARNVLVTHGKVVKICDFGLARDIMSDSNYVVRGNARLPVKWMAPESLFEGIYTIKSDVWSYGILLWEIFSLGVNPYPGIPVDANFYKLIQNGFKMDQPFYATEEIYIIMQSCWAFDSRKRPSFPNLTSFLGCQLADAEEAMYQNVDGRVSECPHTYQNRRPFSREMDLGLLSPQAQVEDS

[21] = target: SRPK1 (Homo sapiens (Human), UniProt Q96SB4); details: SRPK1, 10000 nM; read-out: Percent Control
SRPK1, sequence (Q96SB4 whole entry): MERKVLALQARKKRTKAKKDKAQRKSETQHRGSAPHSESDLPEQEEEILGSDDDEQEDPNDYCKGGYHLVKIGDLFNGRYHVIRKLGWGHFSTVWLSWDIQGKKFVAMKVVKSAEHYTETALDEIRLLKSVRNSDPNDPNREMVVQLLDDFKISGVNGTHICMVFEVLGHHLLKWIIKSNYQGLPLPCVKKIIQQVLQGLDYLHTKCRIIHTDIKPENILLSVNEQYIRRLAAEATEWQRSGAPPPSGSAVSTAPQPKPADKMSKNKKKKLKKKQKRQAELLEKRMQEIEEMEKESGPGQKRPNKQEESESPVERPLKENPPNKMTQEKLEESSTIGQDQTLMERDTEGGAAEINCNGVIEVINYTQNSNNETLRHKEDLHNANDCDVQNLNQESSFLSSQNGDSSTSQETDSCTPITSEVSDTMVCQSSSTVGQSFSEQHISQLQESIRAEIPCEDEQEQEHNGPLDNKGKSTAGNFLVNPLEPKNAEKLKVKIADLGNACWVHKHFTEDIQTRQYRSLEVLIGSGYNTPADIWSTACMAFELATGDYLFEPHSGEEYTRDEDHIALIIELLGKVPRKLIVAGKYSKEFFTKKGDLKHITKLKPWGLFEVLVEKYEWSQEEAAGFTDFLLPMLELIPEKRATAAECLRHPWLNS

[22] = target: VEGFR2 (Homo sapiens (Human), UniProt P35968); details: VEGFR2, 10000 nM; read-out: Percent Control
[23] = target: ABL1(F317I)-phosphorylated (Homo sapiens (Human), UniProt P00519, F317I); details: 10000 nM, read-out: Percent Control
[24] = target: CSNK2A2 (Homo sapiens (Human), UniProt P19784); details: CSNK2A2, 10000 nM; read-out: Percent Control
[25] = target: GRK4 (Homo sapiens (Human), UniProt P32298); details: GRK4, 10000 nM; read-out: Percent Control
[26] = target: RIOK3 (Homo sapiens (Human), UniProt O14730); details: RIOK3, 10000 nM; read-out: Percent Control
RIOK3, sequence (O14730 whole entry): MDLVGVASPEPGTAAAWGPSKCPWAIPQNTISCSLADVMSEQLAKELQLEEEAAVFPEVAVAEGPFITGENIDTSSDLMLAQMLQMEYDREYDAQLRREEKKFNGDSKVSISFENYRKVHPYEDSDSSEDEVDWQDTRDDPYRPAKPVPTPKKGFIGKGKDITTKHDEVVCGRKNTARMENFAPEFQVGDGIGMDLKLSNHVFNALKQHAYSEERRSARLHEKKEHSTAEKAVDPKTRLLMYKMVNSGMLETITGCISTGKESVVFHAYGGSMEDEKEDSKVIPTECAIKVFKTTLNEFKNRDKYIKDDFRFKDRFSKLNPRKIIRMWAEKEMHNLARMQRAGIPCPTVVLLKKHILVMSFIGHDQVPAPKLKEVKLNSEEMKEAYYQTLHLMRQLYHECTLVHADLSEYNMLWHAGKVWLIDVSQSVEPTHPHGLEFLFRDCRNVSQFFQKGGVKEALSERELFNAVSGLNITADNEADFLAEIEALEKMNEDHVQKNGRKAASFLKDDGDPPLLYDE

[27] = target: PAK3 (Homo sapiens (Human), UniProt O75914); details: PAK3, 10000 nM; read-out: Percent Control
[28] = target: JNK3 (Homo sapiens (Human), UniProt P53779); details: JNK3, 10000 nM; read-out: Percent Control
JNK3, sequence (P53779 whole entry): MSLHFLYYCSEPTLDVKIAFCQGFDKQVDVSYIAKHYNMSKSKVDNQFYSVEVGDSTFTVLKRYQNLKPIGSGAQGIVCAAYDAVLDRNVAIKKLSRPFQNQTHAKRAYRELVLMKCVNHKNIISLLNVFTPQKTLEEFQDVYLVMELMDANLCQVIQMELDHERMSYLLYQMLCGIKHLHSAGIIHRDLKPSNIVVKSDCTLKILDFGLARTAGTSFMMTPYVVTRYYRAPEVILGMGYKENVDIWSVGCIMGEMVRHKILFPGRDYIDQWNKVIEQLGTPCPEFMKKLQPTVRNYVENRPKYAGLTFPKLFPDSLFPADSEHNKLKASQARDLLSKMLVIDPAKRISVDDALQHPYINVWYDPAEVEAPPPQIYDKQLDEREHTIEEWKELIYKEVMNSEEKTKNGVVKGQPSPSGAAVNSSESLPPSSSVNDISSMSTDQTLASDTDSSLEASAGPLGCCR

[29] = target: TRPM6 (Homo sapiens (Human), UniProt Q9BX84); details: TRPM6, 10000 nM; read-out: Percent Control
[30] = target: HPK1 (Homo sapiens (Human), UniProt Q92918); details: HPK1, 10000 nM; read-out: Percent Control
[31] = target: CDK4-cyclinD3 (Homo sapiens (Human), UniProt P11802); details: CDK4-cyclinD3, 10000 nM; read-out: Percent Control
[32] = target: ERK8 (Homo sapiens (Human), UniProt Q8TD08); details: ERK8, 10000 nM; read-out: Percent Control

IRAK1, sequence (P51617 whole entry): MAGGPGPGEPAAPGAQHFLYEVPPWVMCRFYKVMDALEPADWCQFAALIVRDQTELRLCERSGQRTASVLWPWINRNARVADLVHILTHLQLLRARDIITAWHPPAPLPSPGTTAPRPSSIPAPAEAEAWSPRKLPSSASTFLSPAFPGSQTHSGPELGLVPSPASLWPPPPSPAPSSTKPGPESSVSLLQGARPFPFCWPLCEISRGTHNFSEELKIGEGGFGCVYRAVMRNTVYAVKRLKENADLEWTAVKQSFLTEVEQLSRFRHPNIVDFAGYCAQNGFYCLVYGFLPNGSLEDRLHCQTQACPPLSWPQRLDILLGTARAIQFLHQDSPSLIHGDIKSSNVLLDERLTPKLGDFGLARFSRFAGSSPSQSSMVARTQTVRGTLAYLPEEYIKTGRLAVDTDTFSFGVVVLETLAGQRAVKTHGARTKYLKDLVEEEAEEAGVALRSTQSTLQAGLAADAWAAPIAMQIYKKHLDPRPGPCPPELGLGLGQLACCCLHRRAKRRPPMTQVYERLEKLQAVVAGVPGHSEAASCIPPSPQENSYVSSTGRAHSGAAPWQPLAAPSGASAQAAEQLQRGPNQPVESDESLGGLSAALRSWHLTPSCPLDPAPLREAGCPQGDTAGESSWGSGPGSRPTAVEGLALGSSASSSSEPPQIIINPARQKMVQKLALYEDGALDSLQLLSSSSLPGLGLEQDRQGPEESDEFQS

`COc1cc(N2CCC(N3CCN(C)CC3)CC2)ccc1Nc1ncc2c(n1)N(C)c1sc(C)nc1C(=O)N2` [Compound 3, 6-((2-methoxy-4-(4-(4-methylpiperazin-1-yl)piperidin-1-yl)phenyl)amino)-2,4-dimethyl-4,9-dihydro-10H-pyrimido[5,4-b]thiazolo[5,4-e][1,4]diazepin-10-one] showed a remaining binding at 10 µM ([1]; IRAK1, 10000 nM) of 100%, a remaining binding at 10 µM [2] of 69% and a remaining binding at 10 µM [3] of 81%. The remaining binding at 10 µM [4] was 82%, the remaining binding at 10 µM [5] was 93% and the remaining binding at 10 µM [6] was 87%. It also gave a remaining binding at 10 µM [7] of 100%, a remaining binding at 10 µM [8] of 62% and a remaining binding at 10 µM [9] of 71%. It also gave a remaining binding at 10 µM [10] of 100%, a remaining binding at 10 µM [11] of 79% and a remaining binding at 10 µM [12] of 74%. It also gave a remaining binding at 10 µM [13] of 0.55%, a remaining binding at 10 µM [14] of 92% and a remaining binding at 10 µM [15] of 99%. The remaining binding at 10 µM [16] was 100%, the remaining binding at 10 µM [17] was 81% and the remaining binding at 10 µM [18] was 92%. It also gave a remaining binding at 10 µM [19] of 71%, a remaining binding at 10 µM [20] of 100% and a remaining binding at 10 µM [21] of 100%. The remaining binding at 10 µM [22] was 100%, the remaining binding at 10 µM [23] was 14% and the remaining binding at 10 µM [24] was 87%. It also gave a remaining binding at 10 µM [25] of 72%, a remaining binding at 10 µM [26] of 79% and a remaining binding at 10 µM [27] of 78%. The remaining binding at 10 µM [28] was 100%, the remaining binding at 10 µM [29] was 100% and the remaining binding at 10 µM [30] was 68%. For the same compound, the remaining binding at 10 µM [31] was 95% and the remaining binding at 10 µM [32] was 86%.

`COc1cc(N2CCC(N3CCN(C)CC3)CC2)ccc1Nc1ncc2c(n1)N(C)c1sc(C)nc1C(=O)N2C` [Compound 5, 6-((2-methoxy-4-(4-(4-methylpiperazin-1-yl)piperidin-1-yl)phenyl)amino)-2,4,9-trimethyl-4,9-dihydro-10H-pyrimido[5,4-b]thiazolo[5,4-e][1,4]diazepin-10-one] showed a remaining binding at 10 µM ([1]; IRAKI, 10000 nM) of 100%, a remaining binding at 10 µM [2] of 38% and a remaining binding at 10 µM [3] of 100%. For the same compound, the remaining binding at 10 µM [4] was 100%, the remaining binding at 10 µM [5] was 100% and the remaining binding at 10 µM [6] was 100%. It also gave a remaining binding at 10 µM [7] of 77%, a remaining binding at 10 µM [8] of 97% and a remaining binding at 10 µM [9] of 97%. The remaining binding at 10 µM [10] was 100%, the remaining binding at 10 µM [11] was 97% and the remaining binding at 10 µM [12] was 100%. For the same compound, the remaining binding at 10 µM [13] was 0.1%, the remaining binding at 10 µM [14] was 100% and the remaining binding at 10 µM [15] was 97%. It also gave a remaining binding at 10 µM [16] of 90%, a remaining binding at 10 µM [17] of 100% and a remaining binding at 10 µM [18] of 88%. For the same compound, the remaining binding at 10 µM [19] was 90%, the remaining binding at 10 µM [20] was 99% and the remaining binding at 10 µM [21] was 100%. The remaining binding at 10 µM [22] was 95%, the remaining binding at 10 µM [23] was 26% and the remaining binding at 10 µM [24] was 93%. It also gave a remaining binding at 10 µM [25] of 97%, a remaining binding at 10 µM [26] of 99% and a remaining binding at 10 µM [27] of 92%. The remaining binding at 10 µM [28] was 97%, the remaining binding at 10 µM [29] was 92% and the remaining binding at 10 µM [30] was 100%. The remaining binding at 10 µM [31] was 100% and the remaining binding at 10 µM [32] was 100%.
